Values after ≈ are worked out from the molar mass of the structure shown. Read-outs that look alike come from different tables or passages of the source.
What was measured:
[1] = Nitric oxide scavenging assay (Garrat method, Griess reagent)
Experimental: The literature contains reports on the antioxidant activities of 6-flourobenzothiazole-substituted triazoles using DPPH assays. […] Having a phenyl ring on the pyrozoline increased the antioxidant activity in the ferric ion reduction and DPPH solution methods. […] Synthesized compounds with their calculated IC50 values are listed in Table 5 (Figure 8 and Figure 9).
The activity of newly synthesized benzothiazole derivatives was determined using the Garrat method. Griess reported the Garrat method which is followed by a diazotization reaction. Under acidic conditions, this method utilizes sodium nitroprusside as the source of nitric oxide, sulfanilamide and N-1-naphthylethylenediamine dihydrochloride to detect NO2^−, produced at the expense of nitric oxide. A known amount of tested compounds 3a–3h was dissolved in sodium nitroprusside solution (20 mM, 100 µL) and then the volume was made up to 1000 µL with phosphate buffer (200 mM, pH 7.4). This solution was incubated for 2 h at 37 °C and Griess reagent (100 µL) was added. This solution was stored for 20 min at room temperature. At 528 nm, optical density of this colored solution was observed. For positive control, ascorbic acid was used.

[2] = test system: red blood cells; format: cell-based
Experimental: The haemolytic activity of benzothiazole derivatives has already been reported. […] Benzothiazole compounds with halogen substitutions show cytotoxicity towards cancer cell lines. The haemolytic activity of the newly synthesized benzothiazole derivatives were studied against Triton X-100 by a reported method.
Haemolytic activity of newly synthesized benzothiazole derivatives 3a–3h was determined using a reported method. Solutions of compounds were prepared at concentrations of 1 mg/mL in 10% DMSO with 90% water Heparinized human fresh blood (3 mL) was used that was homogeneously mixed and added into a 15 mL sterile Falcon tube. It was centrifuged for 5 min and the supernatant was removed. Chilled sterile isotonic phosphate buffer saline solution (5 mL, 7.4 pH) at 4 °C was used three times. Washed red blood cells were suspended in chilled RBS (20 mL). A haemacytometer was used for counting erythrocytes. For each assay 7.068 × 10^8 red blood cells per mL count were maintained and then diluted blood cells (180 µL) were added to the test compound (20 µL) and suspended in Eppendorf tubes. It was incubated for 35 min at 37 °C then the tubes were kept in an ice bath for 5 min and centrifuged again for 5 min. After centrifugation, the obtained supernatant was collected carefully and diluted with 900 µL of chilled PBS. All these tubes were kept in ice bath and solution (200 µL) was added into 96 well plates from each Eppendrof tube. For each essay, Triton X-100 (0.1%) was taken as positive control. For negative control, phosphate buffer was used. A microplate reader was used for determining the absorbance at 576 nm.

[3] = target: urease (Canavalia ensiformis, UniProt P07374); test: biochemical; format: biochemical; details: for IC50: urease inhibition, in vitro; for inhibition at 15 µg/mL: read-out: % Inhibition at 15 µg/mL, 15 µg/mL; for inhibition at 15 µg/mL / inhibition at 40 µg/mL / % Inhibition at 40 µg/mL: mean ± SD of three measurements; for inhibition at 40 µg/mL: read-out: % Inhibition at 40 µg/mL, 40 µg/mL
[4] = test system: S. dysenteriae; test: Antibacterial activity, 96 well plate method; format: cell-based; details: Shigella dysenteriae, read-out: % Activity at 40 μg/mL, S. dysenteriae
Experimental: The synthesized benzothiazole derivatives were examined for their anti-bacterial activity against two Gram positive-bacterial strains (Baccilus subtiles, Staphylococcus aureus) and four Gram-negative strains (Escherichia coli, Psuedomonas aeruginosa, Shigella dysenteriae, Salmonella typhae) at concentrations of 40 and 80 μg/mL (Table 7 and Table 8). It was concluded that the potent antibacterial activities of these compounds might be due to electron withdrawing groups present on the aryl moiety in N-protected benzothiazole molecule.
These newly benzothiazole derivatives were tested for their antibacterial activities against two Gram positive strains (Baccilus subtilis, Staphylococcus aureus) and four Gram negative strains (Escherichia coli, Psuedomonas aeruginosa, Shigella dysenteriae and Salmonella typhae) using a reported protocol. Streptomycin was used as positive control. The 96 well plate method was optimized for measuring the antibacterial activities of these compounds. In each well, sterilized broth (175 µL) was added and inoculated with glycerol stock (5 µL) of a specific bacterial strain. The initial absorbance was observed between 0.12–0.19. […] After a certain waiting time (12 h), test sample (20 µL) was added to the pre-determined wells. […] The difference in absorbance values were observed and were used as an index of bacterial growth. […]

[5] = human, 35 min, 0.1 mg/mL, pH 7.4

urease, sequence (P07374 whole entry, looked up): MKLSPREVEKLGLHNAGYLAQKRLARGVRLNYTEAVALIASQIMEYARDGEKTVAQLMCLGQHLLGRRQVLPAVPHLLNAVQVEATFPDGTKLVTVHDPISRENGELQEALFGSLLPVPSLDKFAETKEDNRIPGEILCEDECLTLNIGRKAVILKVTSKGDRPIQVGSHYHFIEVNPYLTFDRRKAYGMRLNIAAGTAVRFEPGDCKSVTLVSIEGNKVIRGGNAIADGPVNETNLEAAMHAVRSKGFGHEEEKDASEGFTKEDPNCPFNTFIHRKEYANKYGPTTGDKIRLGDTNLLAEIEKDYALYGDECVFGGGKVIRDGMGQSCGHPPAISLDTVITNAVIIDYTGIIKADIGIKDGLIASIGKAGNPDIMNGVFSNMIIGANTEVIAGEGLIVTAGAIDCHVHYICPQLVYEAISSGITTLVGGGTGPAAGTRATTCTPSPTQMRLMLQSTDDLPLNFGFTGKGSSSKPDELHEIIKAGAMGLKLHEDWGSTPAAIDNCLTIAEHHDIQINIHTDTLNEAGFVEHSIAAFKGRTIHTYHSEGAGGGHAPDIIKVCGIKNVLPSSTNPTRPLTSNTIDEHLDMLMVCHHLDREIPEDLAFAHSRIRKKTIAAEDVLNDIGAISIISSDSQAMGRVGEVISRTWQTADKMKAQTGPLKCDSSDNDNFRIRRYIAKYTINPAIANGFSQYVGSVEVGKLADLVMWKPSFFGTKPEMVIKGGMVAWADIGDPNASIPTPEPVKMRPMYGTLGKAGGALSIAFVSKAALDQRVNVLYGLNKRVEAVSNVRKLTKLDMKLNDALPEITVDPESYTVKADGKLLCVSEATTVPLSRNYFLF

O=C1O[C@H]([C@@H](O)CO)C(O)=C1O [Ascorbic acid, reference compound]
IC50 (µg/mL) nitric oxide scavenging [1]: 50.43 µg/mL (≈ 286 µM)

CC(=O)Nc1nc2ccc(Br)cc2s1 [Compound 2, N-(6-bromobenzo[d]thiazol-2-yl)acetamide]
% lysis of RBC ([2]; compound solutions 1 mg/mL in 10% DMSO, human RBC, 35 min at 37 °C, mean ± SD of three): 44.628 ± 0.369%

CC(=O)Nc1nc2ccc(-c3ccccc3)cc2s1 [Compound 3a, N-(6-Phenylbenzo[d]thiazol-2-yl)acetamide]
IC50 (µg/mL) nitric oxide scavenging [1]: 32.7 µg/mL (≈ 122 µM) | % lysis of RBC [2, 5]: 42.123 ± 0.479% | IC50 ([3]; IC50 (µg/mL)): 69.3 µM | inhibition at 15 µg/mL [3]: 44 ± 0.12% | inhibition at 40 µg/mL [3]: 83.9 ± 0.12%

CC(=O)Nc1nc2ccc(-c3ccc(C)cc3)cc2s1 [Compound 3b, N-(6-(p-Tolyl)benzo[d]thiazol-2-yl)acetamide]
IC50 (µg/mL) nitric oxide scavenging [1]: 26.4 µg/mL (≈ 93.5 µM) | % lysis of RBC [2, 5]: 44.179 ± 0.157% | IC50 ([3]; IC50 (µg/mL)): 58.4 µM | inhibition at 15 µg/mL [3]: 47 ± 0.11% | inhibition at 40 µg/mL [3]: 90.51 ± 0.19% | melting point: 205 to 207 °C

CC(=O)Nc1nc2ccc(-c3cc(C(F)(F)F)cc(C(F)(F)F)c3)cc2s1 [Compound 3c, N-(6-(3,5-bis(Trifluoromethyl)phenyl)benzo[d]thiazol-2-yl)acetamide]
% lysis of RBC [2, 5]: 47.089 ± 0.130% | % Inhibition at 40 µg/mL [3]: 90.07 ± 0.20% | IC50 ([3]; IC50 (µg/mL)): 42.5 µM | inhibition at 15 µg/mL [3]: 46.09 ± 0.1% | inhibition at 40 µg/mL [3]: 90.33 ± 0.2%

COc1ccc(-c2ccc3nc(NC(C)=O)sc3c2)cc1 [Compound 3d, N-(6-(4-Methoxyphenyl)benzo[d]thiazol-2-yl)acetamide]
% lysis of RBC [2, 5]: 44.078 ± 0.279% | IC50 ([3]; IC50 (µg/mL)): 57 µM | inhibition at 15 µg/mL [3]: 46.5 ± 0.15% | inhibition at 40 µg/mL [3]: 88.5 ± 0.24% | melting point: 218 to 220 °C

CC(=O)Nc1nc2ccc(-c3ccc(C)s3)cc2s1 [Compound 3e, N-(6-(5-Methylthiophen-2-yl)benzo[d]thiazol-2-yl)acetamide]
IC50 (µg/mL) nitric oxide scavenging [1]: 37.1 µg/mL (≈ 129 µM) | % lysis of RBC [2, 5]: 44.425 ± 0.181% | IC50 ([3]; IC50 (µg/mL)): 59.6 µM | inhibition at 15 µg/mL [3]: 46 ± 0.12% | inhibition at 40 µg/mL [3]: 87 ± 0.26%

CC(=O)Nc1nc2ccc(-c3cc(C#N)cc(C(F)(F)F)c3)cc2s1 [Compound 3f, N-(6-(3-Cyano-5-(trifluoromethyl)phenyl)benzo[d]thiazol-2-yl)acetamide]
nitric oxide scavenging activity (in words) [1]: inactive | % lysis of RBC [2, 5]: 44.063 ± 0.314% | IC50 ([3]; IC50 (µg/mL)): 53.1 µM | inhibition at 15 µg/mL [3]: 42 ± 0.12% | inhibition at 40 µg/mL [3]: 87.5 ± 0.26%

CC(=O)Nc1nc2ccc(-c3ccc(F)c(Cl)c3)cc2s1 [Compound 3g, N-(6-(3-Chloro-4-fluorophenyl)benzo[d]thiazol-2-yl)acetamide]
IC50 (µg/mL) nitric oxide scavenging [1]: 39.1 µg/mL (≈ 122 µM) | % lysis of RBC [2, 5]: 43.614 ± 0.157% | IC50 ([3]; IC50 (µg/mL)): 58.9 µM | inhibition at 15 µg/mL [3]: 42 ± 0.14% | inhibition at 40 µg/mL [3]: 87 ± 0.26% | melting point: 166 to 167 °C

CC(=O)Nc1nc2ccc(-c3cc(C)cc(C)c3)cc2s1 [Compound 3h, N-(6-(3,5-Dimethylphenyl)benzo[d]thiazol-2-yl)acetamide]
IC50 (µg/mL) nitric oxide scavenging [1]: 32.3 µg/mL (≈ 109 µM) | % lysis of RBC [2, 5]: 40.661 ± 0.216% | inhibition at 40 µg/mL [4]: 3.51 ± 0.43% | % Inhibition at 40 µg/mL [3]: 90.33 ± 0.20% | IC50 ([3]; IC50 (µg/mL)): 62.1 µM | inhibition at 15 µg/mL [3]: 43.59 ± 0.13% | inhibition at 40 µg/mL [3]: 90.07 ± 0.2% | melting point: 205 to 207 °C

NC(N)=S [Thiourea, reference compound]
IC50 [3]: 23.1 µg/mL
